Experimental findings from patent US11155668B2, “Contact-killing, QAC functionalized thermoplastic polyurethane for catheter applications” (THE UNIVERSITY OF AKRON, priority 2017, dated 2021) are described below.

One series concerns NIH/3T3 fibroblast cells. The series can be described thus: Cell viability assay (LIVE/DEAD staining) on coated coverslips. The format is cell-based. The settings on record: for cell viability relative to glass: 24 h. On the procedure:
NIH/3T3 fibroblast cells (ATCC CRL-1658) were used to assess cell viability (passage 9) on the allyl-TPU films. The 8% allyl-TPU was spin-coated on blank glass coverslips (1 wt. % in chloroform) and samples were annealed at 60° C. for 1 h, then kept under vacuum for 24 h. The coated coverslips were then treated and rinsed as previously described to produce a control, phys. ads., and UV-treated sample modified with Q8-SH. Samples were sterilized by short-wave UV sterilization for 30 minutes. Cells were seeded at a cell density of 194,000 cells/cm^2 and cultured for 24 hours in a 37° C. incubator. Samples were then removed and stained with a LIVE/DEAD™ Viability/Cytotoxicity Kit (ThermoFisher Scientific L3224). Slides were analyzed with a Keyence BZ-X700 microscope at 20× magnification. Pictograms were analyzed with ImageJ software for cell viability counting (n=5). All groups were compared to the glass slide control.

A further series relates to E. faecalis. Description: Contact-killing assay (adapted from ISO 22196) on allyl-TPU blade-coated samples modified with Qx-SH. The settings on record: n = 1, negative control polypropylene 1.70 × 10^5. The format is cell-based, Enterococcus faecalis (ATCC 29212). On the procedure: (§1) To functionalize the allyl-TPU blade-coated samples with Qx-SH reagents, thiol-ene reactions were performed using the same procedure described for rhodamine-SH. Briefly, blade-coated films of allyl-TPU (250 μm thick, 2.0 cm diameter, ca. 110 mg, 20 μmol allyl) were submerged in 2 mL of an Ar purged (30 min) aqueous solution containing Qx-SH (10.0 mM) and LAP (5.0 mM), and allowed to pre-soak for 30 min under Ar. UV-treated samples were irradiated for 30 min (λ=365 nm, I=1.2 mW·cm^−2) while phys. ads. samples were kept in the absence of UV light for 30 min to control for any antimicrobial activity that is contributed by non-covalently attached QAC. Following treatment, the dye/photoinitiator solutions were drawn up and discarded, and the samples were rinsed with 5 mL of DI water (3×) then submerged in 5 mL of DI water. The samples were further rinsed with 10% EtOH (3×) and soaked in 10% EtOH for 15 min (3×), rinsing with 10% EtOH in between each soak.
(§2) For antimicrobial testing, blade-coated samples and catheter tubing of allyl-TPU were sterilized by EtO sterilization using an Anprolene benchtop sterilizer (Anderson Products, Inc., Haw River, N.C.) following the manufacturer's protocol to deliver approximately 0.5 cc·L^−1 of EtO gas over a 12 h sterilization cycle at 35% humidity and room temperature, followed by a 48 h purge under vacuum. The bacterial strains used in this study included Staphylococcus epidermidis (ATCC 12228), Staphylococcus aureus (25923), Escherichia coli (ATCC 25922), Pseudomonas aeruginosa (ATCC 27853), Enterococcus faecalis (ATCC 29212), and methicillin-resistant Staphylococcus aureus (MRSA) (ATCC BAA-41).
(§3) The contact-killing assay was performed on physically adsorbed (phys. ads.), and UV-treated blade-coated samples modified with a series of Qx-SH reagents using a method adapted from ISO 22196. See, International Organization for Standardization. Measurement of antibacterial activity on plastics and other non porous surfaces (ISO 22196:2011), the disclosure of which is incorporated herein by reference in its entirety. Briefly, the samples were inoculated with same day cultures of select bacteria (e.g. E. coli, S. epidermidis) in dilute nutrient media (0.2% tryptic soy broth (TSB) in 1× phosphate buffered saline (PBS)) at approximately 150 colony-forming units (CFU)·mm^−2. Generally, 35 uL of 8.5×10^5 CFU/mL cultures were dispersed across the surface of the sample using sterile polypropylene cover films (area=198 mm^2). Inoculated samples were incubated in a humidified room air incubator (36° C., ca. 80% rel. humidity) for 20 h. Following incubation, surviving cells were recovered from the samples using vigorous agitation (i.e. vortexing for 20 s in PBS). Surviving cells were enumerated via 10-fold series dilution and plating 100 μL onto tryptic soy agar (TSA), incubating overnight and then plate counting CFU. The mean CFU recovered per sample (CFU/sample) were calculated by accounting for dilutions. Internal controls samples of polypropylene and chlorhexidine treated with polypropylene were included in the assay.

The subject of the next series is S. epidermidis. Described as above. The format is cell-based, Staphylococcus epidermidis (ATCC 12228). The settings on record: n = 2, negative control polypropylene 0.93 (±0.03) × 10^5. Here is the method: as §1, §2, §3

Structures are written as SMILES.

With `CCCCCCCC[N+](C)(C)CCCCCCCCOC(=O)CCS.[Cl-]` [Q8-SH], the “cell viability relative to glass” value in the series on NIH/3T3 fibroblast cells (UV-treated samples) and with NIH/3T3 fibroblast cells (phys. ads. samples) was more than 90% in each case. Besides, the “cytotoxicity towards mammalian cells (in words)” value with NIH/3T3 fibroblast cells (control, phys. ads. and UV-treated samples compared to a glass slide control, FIG. 68) is “non-cytotoxic”. For the same molecule, the “Mean CFU/Sample Recovered, E. faecalis” value in the series on E. faecalis (UV-treated samples) and in the series with E. faecalis (phys. ads. samples) was 0.00 CFU/Sample throughout. The “Mean CFU/Sample Recovered, S.epidermidis” value with S. epidermidis (UV-treated samples) and in the series with S. epidermidis (phys. ads. samples) was 0.00 ± 0.00 CFU/Sample each time.
